Experimental data reported in US9198422B2, “Pesticidal pyrazole compounds” (BASF SE, priority 2011, dated 2015).

Assays:
Assay type in all cases: in vivo
Nephotettix virescens = test: B.9 Rice green leafhopper spray test on rice seedlings; conditions: 72 h, after 72 hours, read-out: mortality in comparison with untreated controls
Experimental: B.9 Rice Green Leafhopper (Nephotettix virescens)
Rice seedlings were cleaned and washed 24 hours before spraying. The active compounds were formulated in 1:1 (vol:vol) water:aceton, and 0.1% vol/vol surfactant (EL 620) was added. Potted rice seedlings were sprayed with 5 ml test solution, air dried, placed in cages and inoculated with 10 adults. Treated rice plants were kept at 28-29° C. and relative humidity of 50-60%. Percent mortality was recorded after 72 hours.

Bemisia argentifolii = test: B.3 Silverleaf whitefly, adult, spray test on cotton plants; conditions: for mortality at 1 ppm / mortality at 3 ppm / mortality at 100 ppm: read-out: % mortality in comparison to untreated controls; for mortality at 10 ppm: 72 h, 3 days after treatment, read-out: mortality in comparison with untreated controls
Experimental: B.3 Silverleaf Whitefly (Bemisia argentifolii, Adult)
(§1) The active compounds were formulated in cyclohexanone as a 10,000 ppm solution supplied in 1.3 ml ABgene® tubes. These tubes were inserted into an automated electrostatic sprayer equipped with an atomizing nozzle and they served as stock solutions for which lower dilutions were made in 1:1 (vol:vol) water:aceton. A nonionic surfactant (Kinetic®) was included in the solution at a volume of 0.01% (v/v).
Cotton plants at the cotyledon stage (one plant per pot) were sprayed by an automated electrostatic plant sprayer equipped with an atomizing spray nozzle. The plants were dried in the sprayer fume hood and then removed from the sprayer. Each pot was placed into a plastic cup and 10 to 12 whitefly adults (approximately 3-5 days old) were introduced. The insects were collected using an aspirator and 0.6 cm, nontoxic Tygon® tubing (R-3603) connected to a barrier pipette tip. The tip, containing the collected insects, was then gently inserted into the soil containing the treated plant, allowing insects to crawl out of the tip to reach the foliage for feeding. Cups were covered with a reusable screened lid (150-micron mesh polyester screen PeCap from Tetko, Inc.). Test plants were maintained in a growth room at 25° C. and 20-40% relative humidity for 3 days, avoiding direct exposure to fluorescent light (24 hour photoperiod) to prevent trapping of heat inside the cup. Mortality was assessed 3 days after treatment, compared to untreated control plants.

Plutella xylostella = test: B.10 Diamondback moth cabbage leaf disk dip test; conditions: 500 ppm; 72 h
Experimental: B.10 Diamondback Moth (Plutella xylostella)
The active compounds were formulated in 1:1 (vol:vol) water:aceton and 0.1% (vol/vol) Alkamuls EL 620 surfactant. A 6 cm leaf disk of cabbage leaves was dipped in the test solution for 3 seconds and allowed to air dry in a Petri plate lined with moist filter paper. The leaf disk was inoculated with 10 third instar larvae and kept at 25-27° C. and 50-60% humidity for 3 days. Mortality was assessed after 72 h of treatment.

Dichromothrips corbetti = test: B.8 Orchid thrips petal dip test; conditions: 72 h, after 72 hours, read-out: mortality in comparison with untreated controls
Experimental: B.8 Orchid Thrips (Dichromothrips corbetti)
The active compounds were formulated as a 1:1 (vol:vol) water:aceton solution. Surfactant (Alkamuls EL 620) was added at the rate of 0.1% (vol/vol). Vanda orchids petals were cleaned, washed and air dried prior to spraying. Petals were dipped into the test solution for 3 seconds, air dried, placed inside a resealable plastic and inoculated with 20 adults. The treated petals were kept inside the holding room at 28-29° C. and relative humidity of 50-60%. Percent mortality was recorded after 72 hours.

Aphis gossypii = test: B.2 Cotton aphid, mixed life stages, spray test on cotton plants; conditions: for mortality at 3 ppm / mortality at 0.1 ppm: read-out: % mortality in comparison to untreated controls; for mortality at 10 ppm: 120 h, after 5 days, read-out: mortality in comparison with untreated controls
Experimental: B.2 Cotton Aphid (Aphis gossypii, Mixed Life Stages)
as §1
Cotton plants at the cotyledon stage were infested with aphids prior to treatment by placing a heavily infested leaf from the main aphid colony on top of each cotyledon. Aphids were allowed to transfer overnight to accomplish an infestation of 80-100 aphids per plant and the host leaf was removed. The infested plants were then sprayed by an automated electrostatic plant sprayer equipped with an atomizing spray nozzle. The plants were dried in the sprayer fume hood, removed from the sprayer, and then maintained in a growth room under fluorescent lighting in a 24-hr photoperiod at 25° C. and 20-40% relative humidity. Aphid mortality on the treated plants, relative to mortality on untreated control plants, was determined after 5 days.

Aphis craccivora = test: B.1 Cowpea aphid spray test on potted cowpea plants; conditions: for mortality at 0.3 ppm: read-out: % mortality in comparison to untreated controls; for mortality at 500 ppm: population reduction assessed after 24, 72 and 120 hours, read-out: mortality in comparison with untreated controls
Experimental: If not otherwise specified the test solutions were prepared as follows:
The active compound was dissolved at the desired concentration in a mixture of 1:1 (vol:vol) distilled water:aceton. The test solution was prepared at the day of use and in general at concentrations of ppm (wt/vol).
B.1 Cowpea Aphid (Aphis craccivora)
Potted cowpea plants colonized with 100-150 aphids of various stages were sprayed after the pest population had been recorded. Population reduction was assessed after 24, 72, and 120 hours.

Myzus persicae = test: B.5 Green peach aphid spray test on bell pepper plants; conditions: for mortality at 10 ppm: 120 h, after 5 days, read-out: mortality in comparison with untreated controls; for mortality at 0.1 ppm: read-out: % mortality in comparison to untreated controls
Experimental: B.5 Green Peach Aphid (Myzus persicae)
as §1
Bell pepper plants at the first true-leaf stage were infested prior to treatment by placing heavily infested leaves from the main colony on top of the treatment plants. Aphids were allowed to transfer overnight to accomplish an infestation of 30-50 aphids per plant and the host leaves were removed. The infested plants were then sprayed by an automated electrostatic plant sprayer equipped with an atomizing spray nozzle. The plants were dried in the sprayer fume hood, removed, and then maintained in a growth room under fluorescent lighting in a 24 hour photoperiod at 25° C. and 20-40% relative humidity. Aphid mortality on the treated plants, relative to mortality on untreated control plants, was determined after 5 days.

Megoura viciae = test: B.4 Vetch aphid bean leaf disk microtiter test; conditions: foliar, 144 h, 6 days, read-out: mortality in comparison with untreated controls
Experimental: B.4 Vetch Aphid (Megoura viciae)
The active compounds were formulated in 3:1 (vol:vol) water:DMSO with different concentrations of formulated compounds.
Bean leaf disks were placed into microtiterplates filled with 0.8% agar-agar and 2.5 ppm OPUS™. The leaf disks were sprayed with 2.5 μl of the test solution and 5 to 8 adult aphids were placed into the microtiter plates which were then closed and kept at 23±1° C. and 50±5% relative humidity under fluorescent light for 6 days. Mortality was assessed on the basis of vital, reproduced aphids. Aphid mortality and fecundity was then visually assessed.

Anthonomus grandis = test: B.6 Boll weevil insect diet microtiter test; conditions: 120 h, egg and larval mortality, 5 days, read-out: mortality in comparison with untreated controls
Experimental: B.6 Boll Weevil (Anthonomus grandis)
The compounds were formulated in 3:1 (vol:vol) water:DMSO.
For evaluating control of boll weevil (Anthonomus grandis) the test unit consisted of 24-well-microtiter plates containing an insect diet and 20-30 A. grandis eggs. Different concentrations of formulated compounds were sprayed onto the insect diet at 20 μl, using a custom built micro atomizer, at two replications. After application, the microtiter plates were incubated at 23±1° C. and 50±5% relative humidity for 5 days. Egg and larval mortality was then visually assessed.

SMILES | mortality at 1 ppm (Bemisia argentifolii) [%] | mortality at 0.3 ppm (Aphis craccivora) [%] | mortality at 10 ppm (Bemisia argentifolii) [%] | mortality at 10 ppm (Myzus persicae) [%] | mortality at 2500 ppm (Megoura viciae) [%] | mortality at 10 ppm (Aphis gossypii) [%] | mortality at 500 ppm (Aphis craccivora) [%] | other results
Cc1c(C(=O)Nc2ccnnc2)cnn1C(C)C [#5 of Table 14 in WO10/034737, reference compound] | 0 |  |  |  |  |  |  | mortality at 500 ppm (Nephotettix virescens): 0%
CCN(C(=O)c1cnn(C(C)C)c1C)c1ccnnc1 [#5 of Table 98 in WO10/034737, reference compound] | 0 |  |  |  |  |  |  | feeding damage (FD) (Plutella xylostella): 100%; mortality at 3 ppm (Bemisia argentifolii): 0%; mortality at 500 ppm (Dichromothrips corbetti): 0%
Cc1c(C(=O)Nc2ccnnc2)cnn1C(C)(C)C [#7 of Table 14 in WO10/034737, reference compound] |  | 0 |  |  |  |  |  | mortality at 3 ppm (Aphis gossypii): 25%
Cc1c(C(=O)N(C)c2cccnc2)cnn1CC(F)(F)F [#173 in WO09/027393, reference compound] |  |  | 25 | 50 |  |  |  | 
CCN(C(=O)c1cnn(CC(C)C)c1C)c1ccnnc1 [#175 in WO10/034737, reference compound] |  | 0 |  |  |  |  |  | mortality at 0.1 ppm (Aphis gossypii): 0%; mortality at 0.1 ppm (Myzus persicae): 0%
CCn1ncc(C(=O)N(C)c2cccnc2)c1C [#180 in WO09/0027393, reference compound] |  |  |  |  |  |  |  | mortality at 100 ppm (Bemisia argentifolii): 0%
Cc1c(C(=O)Nc2ccnnc2)cnn1C(C)(C)C#N [I-32] | 100 | 100 | ≥ 75 | ≥ 75 | ≥ 75 | ≥ 75 | ≥ 75 | mortality at 3 ppm (Aphis gossypii): 90%; mortality at 500 ppm (Nephotettix virescens): ≥ 75%
Cc1c(C(=O)Nc2ccnnc2)cnn1C(C(F)(F)F)C(F)(F)F [I-34, 5-methyl-1-(2,2,2-trifluoro-1-trifluoromethyl-ethyl)-1H-pyrazole-4-carboxylic acid pyridazin-4-ylamide] |  |  |  | ≥ 75 | ≥ 75 |  | ≥ 75 | 
Cc1c(C(=O)N(C)c2ccnnc2)cnn1C(C(F)(F)F)C(F)(F)F [I-38, N,5-dimethyl-N-pyridazin-4-yl-1-[2,2,2-trifluoro-1-(trifluoromethyl)ethyl]pyrazole-4-carboxamide] |  |  |  | ≥ 75 | ≥ 75 | ≥ 75 | ≥ 75 | 
CCN(C(=O)c1cnn(C(C)C(C)C)c1C)c1ccnnc1 (centres unmarked) [I-98] |  | 75 | ≥ 75 | ≥ 75 | ≥ 75 | ≥ 75 | ≥ 75 | feeding damage (FD) (Plutella xylostella): 25%; mortality at 0.1 ppm (Aphis gossypii): 95%; mortality at 3 ppm (Bemisia argentifolii): 75%; mortality at 0.1 ppm (Myzus persicae): 95%; mortality at 2500 ppm (Anthonomus grandis): ≥ 75%
CCN(C(=O)c1cnn(C(C)C2(C#N)CC2)c1C)c1ccnnc1 (centres unmarked) [I-198] | 100 |  | ≥ 75 | ≥ 75 |  | ≥ 75 | ≥ 75 | mortality at 500 ppm (Dichromothrips corbetti): ≥ 75%
CCN(C(=O)c1cnn(C(C)C(F)F)c1C)c1ccnnc1 (centres unmarked) [I-201] | 100 |  | ≥ 75 | ≥ 75 |  | ≥ 75 | ≥ 75 | mortality at 500 ppm (Dichromothrips corbetti): ≥ 75%
Cc1c(C(=O)N(C)c2cccnc2)cnn1C(C)C(F)(F)F (centres unmarked) [I-377] |  |  | ≥ 75 |  | ≥ 75 | ≥ 75 | ≥ 75 | mortality at 100 ppm (Bemisia argentifolii): 100%; mortality at 2500 ppm (Anthonomus grandis): ≥ 75%
